Data on two compounds can be found in ChEMBL document CHEMBL1150193, “Euglobal T1, a New Euglobal from Eucalyptus tereticornis” (J Nat Prod, 1991).

This assay relates to human gammaherpesvirus 4. Description: Inhibition of Epstein-Barr virus early antigen activation.

Activity calls are given as the source filed them. The rule behind the calls is not given here.

In the case of `CC(C)CC(=O)c1c(O)c(C=O)c2c(c1O)C[C@H]1C[C@H](C(C)C)C=C[C@@]1(C)O2`, the result was inactive. To `CC(C)CC(=O)c1c(O)c(C=O)c(O)c2c1O[C@]1(C)C=C[C@@H](C(C)C)C[C@@H]1C2` belongs “inactive”.
